# Measurements taken from patent US20170150719A1, “FUNGICIDAL PYRAZOLES AND THEIR MIXTURES” (E I DU PONT DE NEMOURS AND COMPANY, priority 2010, published 2017).
# Columns and labels:
# [1] = test system: Puccinia recondita f sp. tritici; assay: Test L (L1-L5): wheat leaf rust, Compound 81 alone and in mixtures, observed and Colby expected control; format: in vivo; settings: for Test L5 Obsd, disease control rating: wheat leaf rust
# Septoria tritici [2] = assay: Test M (M1-M5): wheat leaf blotch, Compound 81 alone and in mixtures, observed and Colby expected control; format: in vivo
# [3] = test system: Blumeria graminis f. sp. tritici; assay: Test K (K1-K5): wheat powdery mildew, Compound 81 alone and in mixtures, observed and Colby expected control; format: in vivo; settings: for Test K5 Obsd, disease control rating: wheat powdery mildew
# Septoria nodorum = assay: Test E: Septoria glume blotch, preventive spray on wheat seedlings, visual disease rating; settings: Septoria glume blotch on wheat, preventive spray; 100 = 100% disease control; rating without asterisk
# Phytophthora infestans = assay: whole plant or invertebrate; format: in vivo; settings: tomato late blight, preventive spray; 100 = 100% disease control; rating without asterisk
# [4] = test system: Puccinia recondita f. sp. tritici; assay: Test G: wheat leaf rust, spray after inoculation (curative) on wheat seedlings, visual disease rating; format: in vivo; settings: spray after inoculation, 100 = 100% disease control, rating without asterisk
# Excerpt: (§1) A hyphen (-) indicates no test results.
# Alternaria solani = assay: Test B: tomato early blight, preventive spray on tomato seedlings, visual disease rating; settings: tomato early blight, preventive spray; 100 = 100% disease control; rating without asterisk
# Botrytis cinerea = assay: Test A: tomato Botrytis, preventive spray on tomato seedlings, visual disease rating; settings: tomato Botrytis, preventive spray; 100 = 100% disease control, 0 = no control relative to controls; rating without asterisk
# [5] = test system: Puccinia recondita f. sp. tritici; assay: Test H: wheat leaf rust, preventive spray on wheat seedlings, visual disease rating; settings: wheat leaf rust, preventive spray; 100 = 100% disease control; rating without asterisk
# [6] = test system: Blumeria graminis f. sp. tritici; assay: Test I: wheat powdery mildew, preventive spray on wheat seedlings, visual disease rating; settings: wheat powdery mildew, preventive spray; 100 = 100% disease control; rating without asterisk
# Septoria tritici [7] = assay: Test F: wheat leaf blotch, preventive spray on wheat seedlings, visual disease rating; format: in vivo; settings: preventive spray, 100 = 100% disease control, rating without asterisk
# Excerpt: as §1
smiles,measurement,setting,value
"CC1CCN(c2c(-c3c(F)cc(F)cc3F)c(Cl)nc3ncnn23)CC1 [BAS600, 5-chloro-6-(2,4,6-trifluorophenyl)-7-(4-methylpiperidin-1-yl)[1,2,4]triazolo[1,5-a]pyrimidine]",Test L3 Obsd,[1]; component (b) 0.08 ppm alone,74%
same,Test L3 Obsd,[1]; component (b) 0.4 ppm alone,88%
same,Test L3 Obsd,[1]; component (b) 2 ppm alone,99%
same,Test L3 Obsd,[1]; component (b) 10 ppm alone,100%
same,"Test M2 Obsd, disease control rating",Septoria tritici [2]; component (b) 0.016 ppm alone,0%
same,"Test M2 Obsd, disease control rating",Septoria tritici [2]; component (b) 0.08 ppm alone,0%
same,"Test M2 Obsd, disease control rating",Septoria tritici [2]; component (b) 0.4 ppm alone,93%
same,"Test M2 Obsd, disease control rating",Septoria tritici [2]; component (b) 2 ppm alone,100%
same,Test K3 Obsd,[3]; component (b) 0.08 ppm alone,0%
same,Test K3 Obsd,[3]; component (b) 0.4 ppm alone,0%
same,Test K3 Obsd,[3]; component (b) 2 ppm alone,96%
same,Test K3 Obsd,[3]; component (b) 10 ppm alone,100%
"Cc1nn(C)c(Nc2c(F)cc(F)cc2Br)c1-c1ccc(F)cc1Br [Compound 195, N-(2-bromo-4,6-difluorophenyl)-4-(2-bromo-4-fluorophenyl)-1,3-dimethyl-1H-pyrazol-5-amine]",Test E rating (% disease control),Septoria nodorum,99%
same,Test C rating (% disease control),Phytophthora infestans,0%
same,Test G rating (% disease control),[4],89%
same,Test B rating (% disease control),Alternaria solani,100%
"Cc1nn(C)c(Nc2c(F)cccc2Cl)c1-c1ccc(F)cc1F [Compound 275, N-(2-chloro-6-fluorophenyl)-4-(2,4-difluorophenyl)-1,3-dimethyl-1H-pyrazol-5-amine]",Test E rating (% disease control),Septoria nodorum,60%
same,Test C rating (% disease control),Phytophthora infestans,0%
same,Test G rating (% disease control),[4],9%
same,Test B rating (% disease control),Alternaria solani,99%
Cn1cc(C(=O)Nc2ccc(F)cc2-c2ccc(Cl)c(Cl)c2)c(C(F)F)n1 [bixafen],Test L3 Obsd,[1]; component (b) 0.08 ppm alone,9%
same,Test L3 Obsd,[1]; component (b) 0.4 ppm alone,88%
same,Test L3 Obsd,[1]; component (b) 2 ppm alone,99%
same,Test L3 Obsd,[1]; component (b) 10 ppm alone,100%
same,"Test M2 Obsd, disease control rating",Septoria tritici [2]; component (b) 0.08 ppm alone,0%
same,"Test M2 Obsd, disease control rating",Septoria tritici [2]; component (b) 0.4 ppm alone,33%
same,"Test M2 Obsd, disease control rating",Septoria tritici [2]; component (b) 2 ppm alone,89%
same,Test K3 Obsd,[3]; component (b) 0.08 ppm alone,0%
same,Test K3 Obsd,[3]; component (b) 0.4 ppm alone,0%
same,Test K3 Obsd,[3]; component (b) 2 ppm alone,64%
same,Test K3 Obsd,[3]; component (b) 10 ppm alone,99%
Cc1nn(C)c(Nc2c(F)cc(Cl)cc2F)c1-c1ccc(F)cc1I [compound 225],Test E rating (% disease control),Septoria nodorum,0%
same,Test A rating (% disease control),Botrytis cinerea,99%
same,Test G rating (% disease control),[4],0%
same,Test H rating (% disease control),[5],99%
same,Test B rating (% disease control),Alternaria solani,68%
same,Test I rating (% disease control),[6],100%
same,Test F rating (% disease control),Septoria tritici [7],100%
Cc1nn(C)c(Nc2c(F)cc(F)cc2Br)c1-c1ccc(F)cc1I [compound 226],Test E rating (% disease control),Septoria nodorum,60%
same,Test A rating (% disease control),Botrytis cinerea,97%
same,Test G rating (% disease control),[4],0%
same,Test H rating (% disease control),[5],99%
same,Test B rating (% disease control),Alternaria solani,97%
same,Test I rating (% disease control),[6],100%
same,Test F rating (% disease control),Septoria tritici [7],100%
Cc1nn(C)c(Nc2c(Cl)cc(F)cc2Cl)c1-c1ccc(Cl)cc1F [compound 227],Test E rating (% disease control),Septoria nodorum,0%
same,Test A rating (% disease control),Botrytis cinerea,0%
same,Test G rating (% disease control),[4],0%
same,Test H rating (% disease control),[5],95%
same,Test B rating (% disease control),Alternaria solani,0%
same,Test I rating (% disease control),[6],96%
same,Test F rating (% disease control),Septoria tritici [7],100%
Cc1nn(C)c(Nc2c(F)cc(F)cc2Cl)c1-c1ccc(Cl)cc1F [compound 228],Test E rating (% disease control),Septoria nodorum,0%
same,Test A rating (% disease control),Botrytis cinerea,68%
same,Test G rating (% disease control),[4],0%
same,Test H rating (% disease control),[5],96%
same,Test B rating (% disease control),Alternaria solani,40%
same,Test I rating (% disease control),[6],81%
same,Test F rating (% disease control),Septoria tritici [7],100%
Cc1nn(C)c(Nc2c(F)cc(F)cc2Br)c1-c1ccc(Cl)cc1F [compound 229],Test E rating (% disease control),Septoria nodorum,64%
same,Test A rating (% disease control),Botrytis cinerea,99%
same,Test G rating (% disease control),[4],9%
same,Test H rating (% disease control),[5],97%
same,Test B rating (% disease control),Alternaria solani,99%
same,Test I rating (% disease control),[6],98%
same,Test F rating (% disease control),Septoria tritici [7],100%
Cc1nn(C)c(Nc2c(F)cc(Cl)cc2F)c1-c1ccc(Cl)cc1F [compound 230],Test E rating (% disease control),Septoria nodorum,0%
same,Test A rating (% disease control),Botrytis cinerea,40%
same,Test G rating (% disease control),[4],0%
same,Test H rating (% disease control),[5],94%
same,Test B rating (% disease control),Alternaria solani,0%
same,Test I rating (% disease control),[6],95%
same,Test F rating (% disease control),Septoria tritici [7],100%
Cc1nn(C)c(Nc2c(F)cc(Cl)cc2Cl)c1-c1ccc(Cl)cc1F [compound 231],Test E rating (% disease control),Septoria nodorum,0%
same,Test A rating (% disease control),Botrytis cinerea,33%
same,Test G rating (% disease control),[4],9%
same,Test H rating (% disease control),[5],94%
same,Test B rating (% disease control),Alternaria solani,58%
same,Test I rating (% disease control),[6],99%
same,Test F rating (% disease control),Septoria tritici [7],100%
CC(C1CC1)C(O)(Cn1cncn1)c1ccc(Cl)cc1 (stereo not drawn) [cyproconazole],"Test L5 Obsd, disease control rating",[1]; component (b) 0.016 ppm alone,27%
same,"Test L5 Obsd, disease control rating",[1]; component (b) 0.08 ppm alone,80%
same,"Test L5 Obsd, disease control rating",[1]; component (b) 0.4 ppm alone,92%
same,"Test L5 Obsd, disease control rating",[1]; component (b) 2 ppm alone,100%
same,"Test M2 Obsd, disease control rating",Septoria tritici [2]; component (b) 0.4 ppm alone,0%
same,"Test M2 Obsd, disease control rating",Septoria tritici [2]; component (b) 2 ppm alone,0%
same,"Test M2 Obsd, disease control rating",Septoria tritici [2]; component (b) 10 ppm alone,0%
same,"Test M2 Obsd, disease control rating",Septoria tritici [2]; component (b) 40 ppm alone,98%
same,"Test K5 Obsd, disease control rating",[3]; component (b) 0.016 ppm alone,64%
same,"Test K5 Obsd, disease control rating",[3]; component (b) 0.08 ppm alone,64%
same,"Test K5 Obsd, disease control rating",[3]; component (b) 0.4 ppm alone,79%
same,"Test K5 Obsd, disease control rating",[3]; component (b) 2 ppm alone,96%
CC(C)C1C2CCC1c1c(NC(=O)c3cn(C)nc3C(F)F)cccc12 (stereo not drawn) [isopyrazam],"Test L5 Obsd, disease control rating",[1]; component (b) 0.016 ppm alone,68%
same,"Test L5 Obsd, disease control rating",[1]; component (b) 0.08 ppm alone,89%
same,"Test L5 Obsd, disease control rating",[1]; component (b) 0.4 ppm alone,100%
same,"Test L5 Obsd, disease control rating",[1]; component (b) 2 ppm alone,100%
same,"Test M2 Obsd, disease control rating",Septoria tritici [2]; component (b) 0.08 ppm alone,0%
same,"Test M2 Obsd, disease control rating",Septoria tritici [2]; component (b) 0.4 ppm alone,77%
same,"Test M2 Obsd, disease control rating",Septoria tritici [2]; component (b) 2 ppm alone,93%
same,"Test M2 Obsd, disease control rating",Septoria tritici [2]; component (b) 10 ppm alone,100%
same,Test K3 Obsd,[3]; component (b) 0.08 ppm alone,0%
same,Test K3 Obsd,[3]; component (b) 0.4 ppm alone,50%
same,Test K3 Obsd,[3]; component (b) 2 ppm alone,99%
same,Test K3 Obsd,[3]; component (b) 10 ppm alone,99%
CC(C)CC(C)c1sccc1NC(=O)c1cn(C)nc1C(F)(F)F (stereo not drawn) [penthiopyrad],"Test L5 Obsd, disease control rating",[1]; component (b) 0.016 ppm alone,9%
same,"Test L5 Obsd, disease control rating",[1]; component (b) 0.08 ppm alone,55%
same,"Test L5 Obsd, disease control rating",[1]; component (b) 0.4 ppm alone,68%
same,"Test L5 Obsd, disease control rating",[1]; component (b) 2 ppm alone,99%
same,"Test M2 Obsd, disease control rating",Septoria tritici [2]; component (b) 0.08 ppm alone,0%
same,"Test M2 Obsd, disease control rating",Septoria tritici [2]; component (b) 0.4 ppm alone,0%
same,Test K3 Obsd,[3]; component (b) 0.08 ppm alone,0%
same,Test K3 Obsd,[3]; component (b) 0.4 ppm alone,0%
same,Test K3 Obsd,[3]; component (b) 2 ppm alone,99%
same,Test K3 Obsd,[3]; component (b) 10 ppm alone,100%
C=CCOC1=NS(=O)(=O)c2ccccc21 [probenazole],Test L1 Obsd,[1]; component (b) 10 ppm alone,9%
same,Test L1 Obsd,[1]; component (b) 40 ppm alone,18%
same,Test L1 Obsd,[1]; component (b) 200 ppm alone,18%
same,"Test M1 Obsd, disease control rating",Septoria tritici [2]; component (b) 10 ppm alone,0%
same,"Test M1 Obsd, disease control rating",Septoria tritici [2]; component (b) 40 ppm alone,0%
same,"Test M1 Obsd, disease control rating",Septoria tritici [2]; component (b) 200 ppm alone,0%
same,Test K1 Obsd,[3]; component (b) 10 ppm alone,68%
same,Test K1 Obsd,[3]; component (b) 40 ppm alone,21%
same,Test K1 Obsd,[3]; component (b) 200 ppm alone,71%
Fc1ccc(Oc2ccnc3cc(Cl)cc(Cl)c23)cc1 [quinoxyfen],Test L1 Obsd,[1]; component (b) 10 ppm alone,0%
same,Test L1 Obsd,[1]; component (b) 40 ppm alone,0%
same,Test L1 Obsd,[1]; component (b) 200 ppm alone,0%
same,Test M5 Obsd disease control rating,Septoria tritici [2]; component (b) alone 10 ppm,0%
same,Test M5 Obsd disease control rating,Septoria tritici [2]; component (b) alone 40 ppm,0%
same,Test M5 Obsd disease control rating,Septoria tritici [2]; component (b) alone 200 ppm,8%
same,"Test K5 Obsd, disease control rating",[3]; component (b) 0.016 ppm alone,21%
same,"Test K5 Obsd, disease control rating",[3]; component (b) 0.08 ppm alone,29%
same,"Test K5 Obsd, disease control rating",[3]; component (b) 0.4 ppm alone,64%
same,"Test K5 Obsd, disease control rating",[3]; component (b) 2 ppm alone,93%
CCCN(CC)CC1COC2(CCC(C(C)(C)C)CC2)O1 (stereo not drawn) [spiroxamine],Test M5 Obsd disease control rating,Septoria tritici [2]; component (b) alone 10 ppm,0%
same,Test M5 Obsd disease control rating,Septoria tritici [2]; component (b) alone 40 ppm,3%
same,Test M5 Obsd disease control rating,Septoria tritici [2]; component (b) alone 200 ppm,0%
same,Test K3 Exp,[3]; component (b) 0.4 ppm alone,0%
same,Test K3 Obsd,[3]; component (b) 0.4 ppm alone,0%
same,Test K3 Exp,[3]; component (b) 2 ppm alone,0%
same,Test K3 Obsd,[3]; component (b) 2 ppm alone,0%
same,Test K3 Exp,[3]; component (b) 10 ppm alone,0%
same,Test K3 Obsd,[3]; component (b) 10 ppm alone,0%
same,Test K3 Exp,[3]; component (b) 40 ppm alone,91%
same,Test K3 Obsd,[3]; component (b) 40 ppm alone,99%
